From article PMC8941652 (European journal of medicinal chemistry, 2022)
Like-named read-outs stand apart in the source and are kept apart here.

How the values were obtained:
[1] = assay type: in vivo, CD-1 female mice; conditions: p.o. 25 mg/kg, CMC/Tween80 suspension, compared with parent PAS
[2] = system: Mycobacterium tuberculosis H37Rv; assay type: cell-based; conditions: for MIC: H37Rv, 7H9 liquid medium, at least 90% growth inhibition, 10 days
[3] = system: Mycobacterium tuberculosis; conditions: cited from earlier work
[4] = system: Drug susceptible Mtb strains; test: microbe, parasite or virus in culture; assay type: cell-based; conditions: Mycobacterium tuberculosis
[5] = p.o. 25 mg/kg

Row | Structure (SMILES) | MIC [2] | MIC [4] [µM] | other results
1 | CC(C)(C)C(=O)OCOC(=O)c1ccc(N)cc1O [Compound 6, (Pivaloyloxy)methyl 4-amino-2-hydroxybenzoate] |  |  | oral bioavailability of PAS released from the suspension of prodrug [1]: significantly lower than the parent PAS
2 | CNc1ccc(C(=O)O)c(O)c1 [Compound 14, 2-Hydroxy-4-(methylamino)benzoic acid] | inactive |  | antitubercular potency relative to PAS [3]: nearly equipotent to PAS
3 | Nc1ccc(C(=O)O)c(O)c1 [PAS, para-Aminosalicylic acid] |  | 0.2 to 0.6 | 
4 | [N-]=[N+]=Nc1ccc(C(=O)O)c(O)c1 [Compound 15, 4-Azido-2-hydroxybenzoic acid] | weakly active |  | loss of activity compared to PAS ([2]; H37Rv MIC): ~200 fold; formation of PAS in vivo [5]: no formation of PAS in vivo
5 | Nc1cc(O)c(C(=O)O)cc1F [Compound 11, 4-Amino-5-fluoro-2-hydroxybenzoic acid] |  | 6.3 to 25 | MIC ([4]; read-out: MICs against the drug susceptible and MDR strains): 6.3 to 50 µg/mL
6 | CC(C)OC(=O)c1ccc(N)cc1O [Compound 5, Isopropyl 4-amino-2-hydroxybenzoate] | abolished activity |  | 
7 | CCOC(=O)c1cc(F)c(N)cc1O [Compound 16, Ethyl 4-amino-5-fluoro-2-hydroxybenzoate] | inactive |  | 
8 | CC(=O)NC[C@H]1CN(c2ccc(N3CCOCC3)c(F)c2)C(=O)O1 [Linezolid] |  | 0.7 to 1.9 | 
